This is an account of results in patent US6780876B2, “Composition for keeping away vermin” (Novartis Animal Health US, Inc., priority 1998, dated 2004).

Experiment [1] deals with Rhipicephalus Sanguineus (nymphs). The experiment can be described thus: Arena test in vitro against Rhipicephalus sanguineus (nymphs). The conditions noted are these: even up to a dilution of 10 μg/cm^2. It counts as in vivo. How it is done: (§1) This method is carried out in titre plates having 6 wells with a cross-section of 5 cm each, using a computer-supported video system. Each well of the titre plate is lined with a circular filter paper or another suitable carrier material. The substance of formula I to be tested is dissolved in methanol, acetonitrile or another suitable solvent, with ultrasound treatment and heating being employed for poorly-soluble substances. In an amount of 1 to 100 μg/cm^2, the dissolved test substance is placed in the centre of the filter paper on a quadrant or circular area of ca. 2.4 cm^2 radius. 4 of the 6 wells are filled with different test substances or with the same test substance in different dilutions (e.g. 1, 3.2, 5, 10 and 20 μg/cm^2). The 5th well is treated with DEET (N,N-diethyl-m-toluamide) as standard substance. The 6th well is filled with the pure solvent and serves as a control. 60 to 100 larvae or 25 to 50 nymphs or 10 to 25 adults of the parasite to be tested, e.g. ticks, are added to each filter paper, and the system is covered with a pane of glass and positioned under a video camera. At intervals of 5 seconds, the video camera takes individual pictures of all 6 wells. […] 6 or with the standard in the 5th well. […] In this way, neutral and deterring substances are determined. At the same time, the duration of activity of the test substance is determined and compared with that of the standard. By plotting all the images for each individual well over one another, different areas of density are obtained. This represents the frequency at which the parasites visit certain places. This frequency is evaluated statistically and thus quantitatively by the Willcoxon method in a comparison with the control and with the standard.
Arena Test in vitro Against Rhipicephalus Sanguineus (nymphs)
A test is carried out analogously to example B using ca. 40 to 50 nymphs.

The test system of experiment [2] is Boophilus Microplus Biarra (larvae). The experiment can be described thus: Arena test in vitro against Boophilus microplus Biarra (larvae). The format is in vivo. The conditions noted are these: even up to a dilution of 10 μg/cm^2. How it is done: as §1
Arena Test in vitro Against Boophilus Microplus Biarra (larvae)
The test is carried out as described above, with ca. 60 to 100 larvae being added per well. 10 mg of dissolved test substance is applied to an area of 2.4 cm^2 radius.

Experiment [3] deals with Amblyomma Hebraeum or Variegatum (nymphs). Kind of experiment: Arena test in vitro against Amblyomma hebraeum or variegatum (nymphs). The conditions noted are these: even up to a dilution of 3.2 μg/cm^2. The format is in vivo. How it is done: (§2) This method is carried out in titre plates having 6 wells with a cross-section of 5 cm each, using a computer-supported video system. Each well of the titre plate is lined with a circular filter paper or another suitable carrier material. The substance of formula I to be tested is dissolved in methanol, acetonitrile or another suitable solvent, with ultrasound treatment and heating being employed for poorly-soluble substances. In an amount of 1 to 100 μg/cm^2, the dissolved test substance is placed in the centre of the filter paper on a quadrant or circular area of ca. 2.4 cm^2 radius. 4 of the 6 wells are filled with different test substances or with the same test substance in different dilutions (e.g. 1, 3.2, 5, 10 and 20 μg/cm^2). The 5th well is treated with DEET (N,N-diethyl-m-toluamide) as standard substance. The 6th well is filled with the pure solvent and serves as a control. 60 to 100 larvae or 25 to 50 nymphs or 10 to 25 adults of the parasite to be tested, e.g. ticks, are added to each filter paper, and the system is covered with a pane of glass and positioned under a video camera. At intervals of 5 seconds, the video camera takes individual pictures of all 6 wells. For a qualitative evaluation, these images are observed in a time-lapse as a continuous film, optically following the movements of the parasites on the filter paper and comparing them with the movements in the control well no. 6 or with the standard in the 5th well. A qualitative observation is thus made as to whether the test parasites move evenly over the whole surface of the filter paper and ignore the test substance, or whether and over what period they avoid the treated zone, and what influence the dilution of the test substance has on the behaviour of the test parasites. In this way, neutral and deterring substances are determined. At the same time, the duration of activity of the test substance is determined and compared with that of the standard. By plotting all the images for each individual well over one another, different areas of density are obtained. This represents the frequency at which the parasites visit certain places. This frequency is evaluated statistically and thus quantitatively by the Willcoxon method in a comparison with the control and with the standard. Compounds of Table 1, for example nos.
Arena Test in vitro Against Amblyomma Hebraeum or Variegatum (nymphs)
The test is carried out as described above, with ca. 25 to 50 nymphs being added per well. 10 mg of dissolved test substance is applied to an area of 2.4 cm^2 radius. […] 1.26 to 1.36, 1.40, 1.45, 1.47, 1.95, 1.96, 1.97, 1.137, and 1.139, even up to a dilution of 3.2 μg/cm^2.

The test system of experiment [4] is ticks. Kind of experiment: Arena test method for testing vermin-deterring substances. It counts as in vivo. The conditions noted are these: 1 to 100 μg/cm^2 on filter paper; video evaluation against solvent control and DEET standard. On the procedure:
Arena Test Method for Testing Vermin-deterring Substances
as §2

In experiment [5] the test system is certain plant damaging insects. The conditions noted are these: cited from earlier work.

Turning to `CCCCCCCCCCC(O)C1CCCCN1` (stereo not drawn) [Compound 1.27, 2-[n-(1-hydroxyundecyl)]piperidine], in experiment [1], the long-term deterring activity entry is recorded as “Particularly marked long-term activity”.

As for `CCCCCCCCCCCCC(O)C1CCCCN1` (stereo not drawn) [Compound 1.29, 2-[n-(1-hydroxytridecyl)]piperidine], the long-term deterring activity result in experiment [1] was “Particularly marked long-term activity”. The same measure, in the same setting: as for `CCCCCCCCCCCCCCC(O)C1CCCCN1` (stereo not drawn) [Compound 1.32, 2-[n-(1-hydroxypentade-cyl)]piperidine], the entry is “Particularly marked long-term activity”; as for `CCCCCCCCCCCCCCCCC(O)C1CCCCN1` (stereo not drawn) [Compound 1.34, 2-[n-(1-hydroxyheptadecyl)]piperidine], “Particularly marked long-term activity”. For the compound `CCCCCCCCCCCCCCCCCCC(O)C1CCCCN1` (stereo not drawn) [Compound 1.36, 2-[n-(1-hydroxynonadecyl)]piperidine], in experiment [1], the long-term deterring activity result is reported as “Particularly marked long-term activity”. As for `OC(c1ccccc1)C1CCCCN1` (stereo not drawn) [Compound 1.40, 2-[(1-phenyl)(1-hydroxy)methyl]piperidine], the long-term deterring activity entry in experiment [1] and in experiment [2] was “Particularly marked long-term activity” in each case. The long-term deterrent activity entry in experiment [3] is “Particularly marked long-term activity”. In the case of `OC(c1ccccc1)C1CCCCN1` (stereo not drawn) [Compound 1.44, 2-[(1-phenyl)(1-hydroxy)methyl]piperidine], in experiment [4], the “vermin-deterring activity in the arena test” value (“vermin-deterring activity” below) was “excellent activity”.

In the case of `CN1CCCCC1C(O)c1ccccc1` (stereo not drawn) [Compound 1.45, N-me-thyl-2-[(1-phenyl)(1-hydroxy)methyl]piperidine], the long-term deterring activity result in experiment [1] and in experiment [2] was “Particularly marked long-term activity” throughout. In addition, in experiment [4], the “vermin-deterring activity” value is “excellent activity”. Further, the long-term deterrent activity entry in experiment [3] is given as “Particularly marked long-term activity”. Take `OC(c1ccccc1)(c1ccc2c(c1)CCO2)C1CCCCN1` (stereo not drawn) [Compound 1.59]: the long-term deterring activity entry in experiment [1] is recorded as “Particularly marked long-term activity”. Also, in experiment [4], the “vermin-deterring activity” value is “excellent activity”. Regarding `Cc1ccc(C(O)C2CCCCN2C)cc1` (stereo not drawn) [Compound 1.87, N-methyl-2-[(1-[4-methylphenyl])-(1-hydroxy)methyl]piperidine], the “vermin-deterring activity” value in experiment [4] is on record as “excellent activity”. Regarding `Cc1ccc(C(O)C2CCCCN2)cc1` (stereo not drawn) [Compound 1.89, 2-[(1-[4-methylphenyl])(1-hydroxy)methyl]piperidine], in experiment [4], the “vermin-deterring activity” value is reported as “excellent activity”. As to `CC(C)c1ccc(C(O)C2CCCCN2)cc1` (stereo not drawn) [Compound 1.95, 2-[(1-[4-isopropyl-phenyl])(1-hydroxy)methyl]piperidine], the long-term deterring activity entry in experiment [2] is reported as “Particularly marked long-term activity”. The “vermin-deterring activity” value in experiment [4] is “excellent activity”. Besides, in experiment [3], the long-term deterrent activity result is reported as “Particularly marked long-term activity”.

On to `CC(C)c1ccc(C(O)C2CCCCN2C)cc1` (stereo not drawn) [Compound 1.96, N-methyl-2-[(1-[4-isopropylphenyl])(1-hydroxy)methyl]-piperidine], for which the long-term deterring activity result in experiment [1] and in experiment [2] was “Particularly marked long-term activity” in each case. In addition, the “vermin-deterring activity” value in experiment [4] is “excellent activity”. In addition, the long-term deterrent activity entry in experiment [3] is listed as “Particularly marked long-term activity”. Regarding `COc1ccc(C(O)C2CCCCN2)cc1` (stereo not drawn) [Compound 1.97, 2-[(1-[4-methoxyphenyl])(1-hydroxy)methyl]piperidine], in experiment [2], the long-term deterring activity result is reported as “Particularly marked long-term activity”. Besides, in experiment [4], the “vermin-deterring activity” value is reported as “excellent activity”. Further, the long-term deterrent activity result in experiment [3] was “Particularly marked long-term activity”. With `CC1(C)CCCC(C(O)c2ccc(Cl)cc2)N1` (stereo not drawn) [Compound 1.101, 6,6-dimethyl-2-[(1-[4-chlorphenyl])(1-hydroxy)methyl]piperidine], the “vermin-deterring activity” value in experiment [4] is listed as “excellent activity”. Regarding `OC(COCc1ccccc1)C1CCCCN1` (stereo not drawn) [Compound 1.137], the long-term deterring activity result in experiment [1] and in experiment [2] was “Particularly marked long-term activity” each time. Further, the “vermin-deterring activity” value in experiment [4] is reported as “excellent activity”. In addition, the long-term deterrent activity entry in experiment [3] is “Particularly marked long-term activity”. With `CC1(C)CCCC(C(O)c2ccc(Cl)cc2)N1` (stereo not drawn) [Compound 1.139, 6,6-dimethyl-2-[(1-[4-chlorphenyl])(1-hydroxy)methyl]piperidine], the long-term deterring activity entry in experiment [1] and in experiment [2] was “Particularly marked long-term activity” each time. Further, in experiment [4], the “vermin-deterring activity” value is “excellent activity”. Moreover, the long-term deterrent activity result in experiment [3] is listed as “Particularly marked long-term activity”. For the compound `CCCCCCCCCCC(O)C1CCCCN1C(C)=O` (stereo not drawn) [Compound 1.140, N-acetyl-2-[(1-hydroxy)(1-undecyl)]piperidine], the long-term deterring activity result in experiment [2] is “Particularly marked long-term activity”. As for `CCCCCCCCCCC(O)C1CCCCN1C(=O)OCC` (stereo not drawn) [Compound 1.141, N -ethoxycarbonyl--2-[(1-hydroxy)(1-undecycl)]piperidine], the long-term deterring activity result in experiment [2] is on record as “Particularly marked long-term activity”. As to `OC[C@H]1NC[C@H](O)[C@@H](O)[C@@H]1O` [deoxynojirimicin], in experiment [5], the “activity as a deterrent” value is “slight activity”.
